Consider seven substances from PMC8362065, “Easily Available, Amphiphilic Diiron Cyclopentadienyl Complexes Exhibit in Vitro Anticancer Activity in 2D and 3D Human Cancer Cells through Redox Modulation Triggered by CO Release” (Chemistry (Weinheim an Der Bergstrasse, Germany), 2021).

Marks after values point to notes of the source that are not given here.

The nature of data set [1]: Octanol/water partition coefficient, shake-flask method and UV/Vis. As to conditions: octanol/water, 21 °C. As for the experimental part: Octanol/water partition coefficients (log Pow ). Partition coefficients (P ow; IUPAC: K D partition constant[53]), defined as P ow=corg/caq, where corg and caq are molar concentrations of the selected compound in the organic and aqueous phase, respectively, were determined by the shake‐flask method and UV/Vis measurements.[[16a], [54]] Deionized water and octan‐1‐ol were vigorously stirred for 24 h, to enable saturation of both phases, then separated by centrifugation. A stock solution of the selected Fe compound (ca. 2 mg) was prepared by first adding acetone (50 μL, to help solubilization), followed by water‐saturated octanol (2.5 mL). The solution was diluted with water‐saturated octanol (ca. 1 : 3 v/v ratio, cFe2 ≈10^−4 M, so that 1.5≤A≤2.0 at λ max) and its UV/Vis spectrum was recorded ( A0/org ). An aliquot of the solution (V org=1.2 mL) was transferred into a test tube and octanol‐saturated water (V org=V aq=1.2 mL) was added. The mixture was vigorously stirred for 30 min at 21 °C then centrifuged (RCF 805, 5 min; Hettich EBA 8G). The UV/Vis spectrum of the organic phase was recorded ( Af/org ) and the partition coefficient was calculated as P ow= Af/org /( A0/org g− Af/org ) where A0/org and Af/org are the absorbance in the organic phase before and after partition with the aqueous phase, respectively.[53] For [2B]BF4, [2C]Cl and [3F]CF3SO3 an inverse procedure was followed, starting from a solution of the compound in octanol‐saturated water. The partition coefficient was calculated as P ow=( A0/aq − Af/aq )/ Af/aq where A0/aq and Af/aq are the absorbance in the aqueous phase before and after partition with the organic phase, respectively.

For data set [2], the target named is T1, Lysozyme from chicken egg white (Gallus gallus, UniProt P00698).
T1 construct: Lysozyme from chicken egg white (M=14 300 Da, 62971 Sigma‐Aldrich); purchased Sigma-Aldrich 62971; host or cells: chicken egg white (natural source)
T1 sequence (P00698 19-147): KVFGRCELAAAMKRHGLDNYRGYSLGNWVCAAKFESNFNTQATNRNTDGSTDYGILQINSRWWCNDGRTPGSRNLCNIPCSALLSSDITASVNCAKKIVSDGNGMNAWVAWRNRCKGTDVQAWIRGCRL
The data set can be described thus: Reactivity with model protein lysozyme, ESI-MS. As to conditions: 37 °C; for Reaction with lysozyme: compound/lysozyme 2 : 1, 24 h; for % Lysozyme methylation (alkylation): lysozyme:compound 1 : 2 molar ratio, 24 h, flow injection ESI-MS peak integrals. As for the experimental part:
To gain insights into the reactivity of the diiron compounds with possible biomolecular targets, we selected lysozyme, a small model protein often used to test interactions with metal compounds.[36] Following 24 h incubation at 37 °C, diiron compounds/lysozyme solutions (2 : 1 molar ratio) in ammonium acetate were filtered and analysed by ESI‐MS. In all cases, the original organometallic cation was identified as the major Fe‐containing compound in solution (Figures S33‐S40). Concerning the protein scaffold, the only identified adduct from the interaction with [2–3]^+ was the methylated derivative, which was also checked by HPLC separation (Figure S41). The expected diiron counterparts, that is, 1A–H, could not be detected possibly due to their water insolubility. The [lysozyme+Me^+] to [lysozyme] ratios, calculated on extracted ion chromatograms after protein peak reconstruction, are reported in Table 4. […] Methylation is a common post‐translational modification of protein/enzymes (methyltransferase enzymes) but it has also been observed as a result of the interaction of proteins with various electrophiles.[37]
Lysozyme from chicken egg white (M=14 300 Da, 62971 Sigma‐Aldrich) was stored at 4 °C as received. A stock solution was prepared by dissolving the powder protein (125 μM) and NH4OAc (1.25×10^−2 M)[56] in HPLC water and was immediately used. Stock solutions of diiron complexes (c Fe2 =1×10^−3 M) were prepared by dissolving the selected compound in DMSO (0.25 mL) or MeOH (0.7 mL; used only for [4G]BF4), then diluting with HPLC water up to 5.0 mL total volume. Next, aliquots of the Fe (0.50 mL) and lysozyme (2.0 mL) stock solutions were mixed and the final solution (Fe2 200 μM, lysozyme 100 μM, NH4OAc 10 mM; 1 % DMSO) was kept at 37 °C for 24 h. The resulting suspensions were centrifuged (RCF 805, 5 min; Hettich EBA 8G) to separate the orange‐brown precipitate. A blank solution (lysozyme only) was prepared and treated by the same procedure. Next, samples were diluted 1 : 20 (v/v) with a water/MeCN (1 : 1, v/v) solution containing 1 % formic acid and analysed by HPLC‐MS and flow injection MS. For HPLC analyses, elution was conducted with a MeCN/water linear gradient (90 : 10 to 5 : 95 v/v over 60 min), containing 0.05 % trifluoroacetic acid. The following compounds were identified by their MS pattern: [2A]^+ (t R=18.0 min), [2B]^+ (t R=13.8 min), [2C]^+ (t R=18.8 min), [2D]^+ (t R=17.0 min), [2E]^+ (t R=18.3 min), [2F]^+ (t R=9.7 min), [3F]^+ (t R=13.1 min), [4G]^+ (t R=23.0 min), [5H]^+ (t R=24.3 min), lysozyme‐CH3 (t R=21.0 min), lysozyme (t R=21.6 min). In all cases, the starting organometallic cation was identified as the major Fe‐containing compound in solution. Protein peaks pattern were obtained following peak reconstruction. Peak integrals for lysozyme and methyl lysozyme were calculated from the extracted ion chromatograms from the flow injection MS analysis (Table 4).

Turning to “[Fe2Cp2(CO)2(μ‐CO){μ‐CNEt(2‐naphthyl)}]BF4 [[4G]BF4]”, the “Log P ow” value in data set [1] was 0.1±0.1. For the same substance, the “Log P ow” value in data set [1] (listed as [4G]^+) is given as “≈ 0”. Besides, in data set [2], the Reaction with lysozyme result was “did not react with lysozyme” and the “% Lysozyme methylation (alkylation)” value stood at 0 %^[b].
For “[Fe2Cp2(CO)2(μ‐CO){μ‐CNMe(1H‐indol‐6‐yl)}]CF3SO3 [[2A]CF3SO3]”, the results for the “Log P ow” value in data set [1] and in data set [1] (listed as [2A]^+) were 0.0±0.1 and “≈ 0”, respectively. Further, the “% Lysozyme methylation (alkylation)” value in data set [2] amounted to 45%.
As for “[Fe2Cp2(CO)2(μ‐CO){μ‐CNMe(CH2CHCH2)}]X [[3F]CF3SO3]”, the “Log P ow” value in data set [1] is recorded as −1.01±0.02. Also, the “% Lysozyme methylation (alkylation)” value in data set [2] is reported as 47%.
In the case of “[Fe2Cp2(CO)2(μ‐CO){μ‐CNMe(4‐C6H4OMe)}]CF3SO3 [[2D]CF3SO3]”, the “Log P ow” value in data set [1] is reported as −0.25±0.04. Moreover, the “% Lysozyme methylation (alkylation)” value in data set [2] came to 31%.
As to “[Fe2Cp2(CO)2(μ‐CO){μ‐CNMe(CH2PO3Et2)}]X [[2B]BF4]”, the “% Lysozyme methylation (alkylation)” value in data set [2] amounted to 49%.
“[Fe2Cp2(CO)2(μ‐CO){μ‐CNMe(C6H11)}]X [[2C]CF3SO3]”: the “Log P ow” value in data set [1] is reported as −0.46±0.02. Also, the “% Lysozyme methylation (alkylation)” value in data set [2] came to 50%.
As to “[Fe2Cp2(CO)2(μ‐CO){μ‐CNBn2}]X [[5H]CF3SO3]”, the “Log P ow” value in data set [1] is 0.2±0.02; in data set [1] (listed as [5H]^+) it was “≈ 0”. Further, the Reaction with lysozyme result in data set [2] is recorded as “did not react with lysozyme”. Besides, in data set [2], the “% Lysozyme methylation (alkylation)” value was found to be 0 %^[b].
